From ChEMBL document CHEMBL3871305, “Imidazopyridyl compounds as aldosterone synthase inhibitors” (Bioorg Med Chem Lett, 2017)

Assays:
in vitro [1] = conditions: human, liver microsomes
in vitro [2] = conditions: rat, liver microsomes
in vitro [3] = conditions: rhesus monkey, liver microsomes
[4] = Plasma clearance in Wistar Han rat at 1 mg/kg, iv or 2 mg/kg, po; format: ADME, organism-based
[5] = Volume of distribution at steady state in Wistar Han rat at 1 mg/kg, iv or 2 mg/kg, po; format: ADME, organism-based; conditions: in vivo, read-out: Vdss
[6] = MRT in Wistar Han rat at 1 mg/kg, iv or 2 mg/kg, po; format: ADME, organism-based; conditions: in vivo
[7] = Half life in Wistar Han rat at 1 mg/kg, iv or 2 mg/kg, po; format: ADME, organism-based; conditions: in vivo
[8] = Dose normalized AUC in Wistar Han rat at 2 mg/kg, po; format: ADME, organism-based; conditions: in vivo
[9] = Cmax in Wistar Han rat at 1 mg/kg, iv or 2 mg/kg, po; format: ADME, organism-based; conditions: in vivo
[10] = Oral bioavailability in Wistar Han rat at 2 mg/kg; format: ADME, organism-based; conditions: in vivo

SMILES	remaining at 0.5 h, 1 µM (in vitro [1]) [%]	remaining at 0.5 h, 1 µM (in vitro [2]) [%]	remaining at 0.5 h, 1 µM (in vitro [3]) [%]	clearance [4] [mL/min/kg]	Vd [5] [L/kg]	MRT [6] [min]	half-life [7] [min]	AUC/dose [8] [µM·kg·h/mg]	Cmax [9] [nM]	bioavailability [10] [%]
Fc1cncc(-c2nc3ccc(F)cn3c2C2CC2)c1	93	70	29	–	–	–	–	–	–	–
CCc1c(F)cncc1-c1nc2ccc(F)cn2c1C1CC1	37	2	0	–	–	–	–	–	–	–

Further lines, results first:

remaining at 0.5 h, 1 µM (in vitro [1]) [%]	remaining at 0.5 h, 1 µM (in vitro [2]) [%]	remaining at 0.5 h, 1 µM (in vitro [3]) [%]	clearance [4] [mL/min/kg]	Vd [5] [L/kg]	MRT [6] [min]	half-life [7] [min]	AUC/dose [8] [µM·kg·h/mg]	Cmax [9] [nM]	bioavailability [10] [%]	SMILES
88	38	31	23	0.82	34.8	36.6	0.92	700	47	C[C@](O)(c1cncc(-c2nc3ccc(F)cn3c2C2CC2)c1)C(F)(F)F
96	33	31	–	–	–	–	–	–	–	C[C@@](O)(c1cncc(-c2nc3ccc(F)cn3c2C2CC2)c1)C(F)(F)F
93	80	87	–	–	–	–	–	–	–	Fc1cncc(-c2nc3cc(F)c(Cl)cn3c2C2CC2)c1
